Assay results reported in US5208344A, “Naphthalenepropionic acid derivatives as anti-inflammatory/antiallergic agents” (American Home Products Corporation, priority 1991, dated 1993).
Like-named read-outs stand apart in the source and are kept apart here.

Legend:
[1] = system: inflammatory mediator release; assay: reverse passive Arthus pleurisy assay, inflammatory mediator release; type: in vivo, rat; details: for ED50: Rattus norvegicus, po
Method: (§1) The compounds of the invention are further tested in the reverse passive Arthus pleurisy assay to evaluate their effectiveness in inflammatory mediator release and/or the fluid and cellular phases of an inflammatory response.
A reverse passive Arthus reaction is induced in the pleural cavity of male Lewis rats (150-200 g; fasted overnight prior to use) by the intravenous administration of bovine serum albumin (BSA; 4 mg/0.2 ml) followed 30 minutes later by the injection of rabbit anti-BSA (1 mg/0.2 ml; lyophilized IgG fraction; Organon Teknika, West Chester, PA) into the right pleural space under halothane anesthesia. […] Animals are sacrificed at either the time of peak eicosanoid production (i.e. 5 minutes after anti-BSA for immunoreactive TxB2, 10 minutes for immunoreactive LTB4, 20 minutes for immunoreactive LTC4) or at the time of peak neutrophil infiltration (4 hours after anti-BSA) by CO2 inhalation. The pleural cavity is then exposed, the fluid exudate removed by gentle vacuum aspiration and the volume of exudate is recorded. For the determination of cellular infiltration, the pleural cavity is rinsed with 3 ml of 0.1% EDTA in sterile saline, and the recovered wash is pooled with the exudate. Cell number is determined on a model ZBI Coulter counter. For determination of eicosanoid production, undiluted pleural exudate is microfuged and the supernatant is extracted with ethanol (8-10 times volume). Extracts are either stored at -20° C., or are evaporated to dryness under a stream of N2 and reconstituted in radioimmunoassay (RIA) buffer.
Eicosanoids are quantitated by RIA according to the procedure specified by the RIA kit manufacturer (Advanced Magnetics, Cambridge, MA). Briefly, 100 μl of ^3 H-labeled eicosanoid and 100 μl of specific antibody are sequentially added to 100 μl of extracted pleural exudate in BGG-phosphate buffer which contains 0.01 M phosphate, 0.1% bovine gamma globulin and 0.1% sodium azide at pH 7.0. Antibody-bound eicosanoid is separated form unbound eicosanoid by the addition of 750 μl of dextran (0.4%)-coated charcoal (0.4% Norit A) containing 0.1% sodium azide. The mixture is centrifuged at 2000 RPM at 5° C. for 15 minutes to pellet the charcoal and adsorbed unbound eicosanoid. Antibody-bound labeled eicosanoid is quantitated by counting in a liquid scintillation counter, and is correlated to concentration by a standard curve.
(§2) Inflammatory cells are expressed as 10^6 cells/ml, pleural exudate is expressed as ml of fluid, and the amount of eicosanoids in the pleural cavity is expressed as ng/ml of exudate. Mean±S.E.M. is determined for each group. Percent inhibition (% I) of cell number, exudate volume and eicosanoid production is calculated for vehicle-treated control groups, and the responses in drug-treated rats are then expressed as the mean $ I of control.

pleural inflammation = assay: reverse passive Arthus pleurisy assay, pleural inflammation; type: in vivo; details: rat; for ED30: po, 4 h; for ED30 / ED30 Fluid Exudation: p.o.
Method: as §1
A reverse passive Arthus reaction is induced in the pleural cavity of male Lewis rats (150-200 g; fasted overnight prior to use) by the intravenous administration of bovine serum albumin (BSA; 4 mg/0.2 ml) followed 30 minutes later by the injection of rabbit anti-BSA (1 mg/0.2 ml; lyophilized IgG fraction; Organon Teknika, West Chester, PA) into the right pleural space under halothane anesthesia. Drugs or vehicle (0.5% Tween-80) control are administered orally in a volume of 1 ml/100 g body weight at 1 hour prior to the anti-BSA. Animals are sacrificed at either the time of peak eicosanoid production (i.e. 5 minutes after anti-BSA for immunoreactive TxB2, 10 minutes for immunoreactive LTB4, 20 minutes for immunoreactive LTC4) or at the time of peak neutrophil infiltration (4 hours after anti-BSA) by CO2 inhalation. The pleural cavity is then exposed, the fluid exudate removed by gentle vacuum aspiration and the volume of exudate is recorded. For the determination of cellular infiltration, the pleural cavity is rinsed with 3 ml of 0.1% EDTA in sterile saline, and the recovered wash is pooled with the exudate. Cell number is determined on a model ZBI Coulter counter. For determination of eicosanoid production, undiluted pleural exudate is microfuged and the supernatant is extracted with ethanol (8-10 times volume). Extracts are either stored at -20° C., or are evaporated to dryness under a stream of N2 and reconstituted in radioimmunoassay (RIA) buffer.
as §2

LTD4 = molecular target: T1, LTD4 (Cavia porcellus, UniProt Q2NNR5); assay: LTD4 antagonist activity in isolated guinea pig trachea; type: cell-based; details: reference leukotriene antagonists
T1 construct: isolated guinea pig trachea; from tissue; host or cells: guinea pig tracheal rings
T1 sequence (Q2NNR5 1-340): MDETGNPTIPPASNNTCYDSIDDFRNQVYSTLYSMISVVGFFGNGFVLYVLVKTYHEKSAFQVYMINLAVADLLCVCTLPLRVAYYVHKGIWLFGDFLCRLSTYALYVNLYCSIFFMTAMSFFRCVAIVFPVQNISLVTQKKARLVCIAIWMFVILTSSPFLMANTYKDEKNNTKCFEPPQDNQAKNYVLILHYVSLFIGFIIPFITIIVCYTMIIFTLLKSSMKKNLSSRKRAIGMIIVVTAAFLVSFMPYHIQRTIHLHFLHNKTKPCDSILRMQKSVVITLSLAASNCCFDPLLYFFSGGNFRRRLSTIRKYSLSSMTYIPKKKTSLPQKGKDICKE
Method: The LTD4 antagonist activity of the compounds of the invention is assessed in the in vitro isolated guinea pig trachea assay. Male Hartley guinea pigs (350-400 g) are euthanized by a blow to the head, the neck is opened and the trachea removed. The trachea is maintained in aerated physiological salt solution, cleared of connective tissue and fat and cut into rings approximately 2 mm in width (usually containing two cartilaginous segments per ring). Two pieces of silk suture are then passed through the lumen of the tracheal ring and are tied around the cartilage, one on each side of the trachealis muscle. The tracheal ring is suspended between a glass hook and a force displacement transducer in a 10 ml organ bath for measurement of isometric tension. Tissues are maintained at 37° C. in aerated ([…] /5% CO2) physiological salt solution of the following composition: […] The tracheal rings are maintained at 2 g resting tension and equilibrated for 45 minutes (with frequence washing and readjustment of resting tension). The tracheal rings are first contracted by the addition of carbachol (3×10^-6 M), to determine tissue responsiveness and establish a reference contraction. On attainment of a stable level of contraction (approximately 30 minutes), the tissues are washed several times until baseline tension has been restored and the re-equilibrated for 30 minutes. The tissues are then incubated for 45 minutes with a test antagonist (either 1×10^-6 M or 1×10^-5 M) or 10 μl of an appropriate solvent control (control, non-treated). One tissue in each group serves as the control. Twenty minutes prior to the construction of the LTD4 cumulative concentration-response curve, L-[…]×10^-2 M final bath concentration) is added to inhibit bioconversion of LTD4 to LTE4. Only one LTD4 concentration-response curve is constructed in each tissue. All responses to LTD4 in an individual tissue are measured as a percentage of the reference contraction of that tissue to carbachol. LTD4 antagonist activity is determined by comparison of the concentration response curves of LTD4 in the presence and absence of antagonist. Assessment of the relative rightward shift of the antagonist treated curve relative to the solvent (control) treated tissue is calculated as a concentration ratio (Eq. A) and used in subsequent calculations to derive an antagonist pKB value (Eqs. B and C). In the vent that the maximum response to LTD4 is depressed, the EC50 for that particular curve is determined, an "apparent" pKB reported, and the compound reported as "not-competitive." [formula] If a compound is found to be active and/or depress the maximal response to LTD4, then a range of concentrations of the test compound should be used generating multiple concentration ratios which would than be used to perform a Schild analysis, and determination of a pA2 value where appropriate.

5-lipoxygenase = molecular target: T2, 5-lipoxygenase (Rattus norvegicus, UniProt P12527); assay: inhibition of 5-HETE synthesis by rat glycogen elicited polymorphonuclear leukocytes; type: cell-based; details: read-out: % Inhibition of 5-LO (as 5-HETE)
T2 construct: Peritoneal PMN are obtained from female Wistar rats (150-250 g); endogenous in cells; host or cells: rat glycogen-elicited peritoneal polymorphonuclear leukocytes, intact
T2 sequence (P12527 1-673): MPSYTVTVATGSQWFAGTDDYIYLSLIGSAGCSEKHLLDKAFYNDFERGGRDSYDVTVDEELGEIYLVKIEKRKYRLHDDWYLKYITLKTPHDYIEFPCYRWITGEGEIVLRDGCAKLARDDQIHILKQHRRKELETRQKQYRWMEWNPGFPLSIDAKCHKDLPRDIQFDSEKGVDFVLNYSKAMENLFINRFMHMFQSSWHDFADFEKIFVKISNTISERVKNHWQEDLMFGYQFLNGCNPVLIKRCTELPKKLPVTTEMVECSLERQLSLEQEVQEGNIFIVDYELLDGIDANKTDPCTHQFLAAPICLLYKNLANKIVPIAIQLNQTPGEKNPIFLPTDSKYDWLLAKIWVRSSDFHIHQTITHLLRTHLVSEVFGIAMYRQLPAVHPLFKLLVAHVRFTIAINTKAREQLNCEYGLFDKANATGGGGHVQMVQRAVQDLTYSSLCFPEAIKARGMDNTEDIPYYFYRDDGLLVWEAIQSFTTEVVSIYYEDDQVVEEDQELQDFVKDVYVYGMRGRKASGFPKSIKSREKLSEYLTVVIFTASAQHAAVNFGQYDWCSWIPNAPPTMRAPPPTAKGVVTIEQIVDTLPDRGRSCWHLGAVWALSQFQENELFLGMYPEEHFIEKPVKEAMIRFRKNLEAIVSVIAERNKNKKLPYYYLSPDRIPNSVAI
Method: The assay of this Example measures the ability of the compounds of the invention to inhibit the synthesis of 5-HETE by rat glycogen elicited polymorphonuclear leukocytes.
(§3) Peritoneal PMN are obtained from female Wistar rats (150-250 g) that received an i.p. injection of 6% glycogen (10 ml). After 24 hours, rats are killed by CO2 asphysiation and peritoneal cells are harvested by peritoneal lavage using Ca^++ and MG^++ free Hanks' balanced salt solution (HBSS). The peritoneal exudate is centrifuged at 400 g for 10 minutes. After centrifugation, the lavaged fluid is removed and the cell pellet is resuspended in HBSS containing Ca^++ and MG^++ and 10 mM L-cysteine at a concentration of 2×10^7 cells/ml. To 1 ml portions of cell suspension, test drugs or vehicle are added and incubated at 37° C. for 10 minutes. Following this preincubation, the calcium ionophore (10 μM), a23187, is added together with 0.5 μM [14 C] arachidonic acid and further incubated for 10 minutes. The reaction is stopped by the addition of ice cold water (3 ml) and acidifying to pH 3.5. Lipoxygenase products are then extracted twice into diethyl ether. The pooled ether extracts are evaporated to dryness under nitrogen and the residue is redissolved in a small volume of methanol and spotted on aluminum backed pre-coated thin layer chromatographic plates. The samples are then cochromatographed with authentic reference 5-HETE in the solvent system - hexane: ether: acetic acid (50:50:3). After chromatography, the areas associated with 5-HETE standard are identified by autoradiography, cut out and quantitated by liquid scintillation.

cyclooxygenase = assay: inhibition of synthesis of cyclooxygenase products TxB2 and PGE2 (rat polymorphonuclear leukocytes); type: cell-based; details: 10 μM; rat PMN; negative = potentiation of PGE2 synthesis
Method: as §3
However, in order to determine cyclooxygenase activity, the samples are cochromatographed with authentic reference TxB2 and PGE2 in the solvent system ethyl acetate: formic acid (80:1) and the upper phase of ethyl acetate: isooctane: acetic acid: water (110:50:20:100). After chromatography, the areas associated with the TxB2 and PGE2 standards are identified by autoradiography, cut out and quantitated by liquid scintillation techniques.

[2] = p.o., 1 hour prior to anti-BSA, rat, 5 min
[3] = p.o., 1 hour prior to anti-BSA, rat, 10 min
[4] = 5 min, p.o., 1 hour prior to anti-BSA, rat, read-out: ED50 TxB2
[5] = 10 min, p.o., 1 hour prior to anti-BSA, rat, read-out: ED50 LTB4

CN=C1CCN(c2cccc(C(F)(F)F)c2)N1 [BW540C]
ED50 TxB2 [1, 2]: 19 mg/kg | ED50 LTB4 [1, 3]: 30 mg/kg

NC1=NN(c2cccc(C(F)(F)F)c2)CC1 [BW755C]
ED50 [1, 4]: 18 mg/kg | ED50 [1, 5]: 23 mg/kg | ED30 (pleural inflammation; read-out: ED30 Cellular Influx): 28 mg/kg | ED30 (pleural inflammation; read-out: ED30 Fluid Exudation): 14 mg/kg

C[C@@H]1C[C@H]2[C@@H]3CCC4=CC(=O)C=C[C@]4(C)[C@@]3(F)[C@@H](O)C[C@]2(C)[C@@]1(O)C(=O)CO [Dexamethasone]
ED30 Fluid Exudation (pleural inflammation): 0.05 mg/kg | ED30 (pleural inflammation; read-out: ED30 Cellular Influx): 0.13 mg/kg

O=C(O)Cc1ccccc1Nc1c(Cl)cccc1Cl [Diclofenac]
% Inh LTB4 ([1]; 10 mg/kg p.o., rat): 0% | ED50 ([1]; 5 min, read-out: ED50 TxB2): 6 mg/kg

CC(C(=O)O)c1cccc(C(=O)c2ccccc2)c1 (stereo not shown) [Ketoprofen]
% Inh LTB4 ([1]; 10 mg/kg p.o., rat): 35% | ED50 ([1]; 5 min, read-out: ED50 TxB2): 0.18 mg/kg

CCCc1c(OCCCCc2nn[nH]n2)ccc(C(C)=O)c1O [Ly-171,883, reference compound]
pKB (LTD4): 7.44 ± 0.12

O=C1CCN(c2ccccc2)N1 [Phenidone]
ED50 [1, 4]: 69 mg/kg | ED50 [1, 5]: 10 mg/kg | ED30 (pleural inflammation; read-out: ED30 Cellular Influx): 23 mg/kg | ED30 (pleural inflammation; read-out: ED30 Fluid Exudation): 21 mg/kg

CN1C(C(=O)Nc2ccccn2)=C(O)c2ccccc2S1(=O)=O [Piroxican]
ED30 (pleural inflammation; read-out: ED30 Cellular Influx): 3 mg/kg | ED30 (pleural inflammation; read-out: ED30 Fluid Exudation): 1 mg/kg

O=S(=O)(Nc1cccc(OCc2ccc3ccccc3n2)c1)C(F)(F)F [Wy-48,252, reference compound]
pKB (LTD4): 6.90 ± 0.23

C[C@H](C(=O)O)c1ccc2cc(OCc3ccc4ccccc4n3)ccc2c1.NC(CO)(CO)CO [Wy-50,295-A]
% Inh TxB2 ([1]; 75 mg/kg p.o., rat): 0% | ED50 LTB4 [1, 3]: 15 mg/kg

COc1ccc2cc([C@H](C)C(=O)O)ccc2c1 [naproxen]
% Inh LTB4 ([1]; 4 mg/kg p.o., rat): 0% | ED50 TxB2 [1, 2]: 0.24 mg/kg | inhibition at 10 µM (5-lipoxygenase): -94% | % Inhibition of CO (as PGE2) (cyclooxygenase): 85% | % Inh Cellular Influx (pleural inflammation; 8 mg/kg p.o.): 29% | ED30 Fluid Exudation (pleural inflammation): 3.9 mg/kg
